Consider 2 compounds from PMC12428610, “Gas-Binding Studies of Class 1 Sugar Beet Phytoglobin and C86A Mutant Using Isothermal Spectral Shifts in High-Precision Microliter Assay” (International Journal of Molecular Sciences, 2025).

Values joined by “and” are separate entries in the source; they are usually repeats but may differ in a detail not shown here. Equal values may be shown once. Read-outs that look alike come from different tables or passages of the source.

The target of one assay is BvPgb 1.2. The assay is described as follows: Flash photolysis and stopped-flow rapid mixing; KD calculated per Equation (3). The settings on record: rWT, calculated per Equation (3) KD,obs=koff(1+KH)/kon from kinetic parameters of ref 30. The assay is classed as binding, Beta vulgaris. The source says: Our obtained results are consistent with KD values derivable from earlier work, where kinetic parameters for BvPgb 1.2 were obtained using stopped-flow rapid mixing and flash photolysis, allowing the calculation of a single apparent KD per gas. While not explicitly reported, KD can be estimated from those data using Equation (3):(3) KD,obs=koff(1+KH)/kon where KH is the hexacoordination equilibrium constant and the (1 + KH) factor is used to account for the “penalty” imposed by the hexacoordinated fraction. […] The additional lower KD or EC50 for CO (400–500 nM) observed with our method likely reflects the contribution of the closed protein form, consistent with the 100–1000-fold kinetic differences reported in [27, 28, 29].

Another assay addresses BvPgb 1.2 C86A mutant. Nature of the assay: Isothermal spectral shift (SpS) gas-binding titration, Monolith X, RED-NHS-labeled protein. Also noted: species or system Beta vulgaris. The source says: (§1) The microscale capillary-based technology described here employs isothermal spectral shift (SpS). SpS has previously primarily been used for the determination of protein–protein interactions. In this study, we examine the possibility to extend the use of this technique to also include the binding of small ligands, like gases, to proteins. Ligand binding induces shifts in fluorescence spectra (blue- or red-shifts), which are detectable under isothermal conditions via dual-wavelength fluorescence detection at 650 nm and 670 nm. By plotting fluorescence intensity ratios (670/650 nm) against ligand concentration, the SpS-derived KD can be obtained. Our goal is to determine KD or half maximal effective concentrations (EC50) from ligand titration series. Here, we present a streamlined microscale method employing fluorophore-labeled proteins in gas-saturated microscale capillaries.
(§2) The proteins were thus incubated in solutions enriched with either CO or dissolved NONOate, utilizing a loading buffer (PBS-T20) to maintain gas saturation. Subsequent titrations of gas-enriched solutions yielded clear, reproducible dose–response curves.
(§3) All SpS measurements conducted in this study were performed using the Monolith X instrument (NanoTemper Technologies GmbH, München, Germany), which is equipped with dual-emission detection optics. The MO.Control 2software (NanoTemper Technologies GmbH) was used to calculate fluorescence intensity ratios at 670 and 650 nm. KD values were determined by fitting dose–response curves to a binding model that follows the law of mass action with a 1:1 interaction stoichiometry. This model defines the bound fraction, f(cL), at equilibrium for a given ligand concentration, cL, as given by Equation (1):(1) fcL=cL+cT+KD−cL+cT+KD^2−4cLcT/2cT where cT is the final concentration of target in the assay. The KD is estimated by fitting Equation (1) with the ratiometric expression seen in Equation (2):(2) RcL=Rf+fcL·Rb−Fb/Ff·Rf/1+fcL·Fb/Ff−1 where R(cL) represents the 670 nm/650 nm ratio at a given cL, Rf corresponds to the ratio of the free target, and Rb corresponds to the bound complex. The parameters Fb and Ff, derived from the sigmoidal dose–response curve fitting of the […], adjust for ligand-induced changes in fluorescence intensity at 650 nm.
(§4) Covalent labeling of primary amines was performed using the Protein Labeling Kit RED-NHS 2nd Generation (cat# MO-L011; NanoTemper Technologies GmbH). The assay buffer (PBS-T20) was prepared by supplementing degassed PBS pH 7.4 (cat# 21-040-CV; Corning, NY, USA) with 0.05% Tween20. Purified proteins in Tris were subjected to buffer exchange using the A-column prior to labeling. Briefly, a twofold molar excess of dye was added to the protein prepared to a final concentration of 20 µM. Proteins and dye were incubated for 30 min at room temperature in the dark to avoid photobleaching. Free dye was removed from the labeled protein using the provided B-column. Labeled proteins were kept in the dark and on ice awaiting capillary loading.
(§5) A working 1 mM CO solution was prepared by sparging PBS-T20 with CO, with the concentration approximated through Henry’s law for CO dissolvability in water (kH(CO) ≈ 0.001 mol l^−1 bar^−1). A working 2 mM NO solution (kH(NO) ≈ 0.002 mol l^−1 bar^−1) was prepared by dissolving 25 mg of NONOate (cat# D184-25MG; Merck, Darmstadt, Germany) in 15 mL of PBS-T20 to obtain a 10.75 mM solution, which provides a 10-molar excess of saturation upon decomposition. The NONOate PBS-T20 solution was gently agitated to create a gas-buffer zone to capture decomposing NONOate. Ligand solutions were prepared as 16-point serial dilutions of 10 µL in PCR-strip tubes, before being mixed by means of aspiration with 10 µL of labeled protein and incubated for 5 min. […]

Assay [1] deals with BvPgb 1.2 recombinant wild type (rWT). Described as above. Set-up: species or system Beta vulgaris.
Source text: as §1, §2, §3, §4, §5

Where [2] appears, read: PBS-T20 pH 7.4, NO from NONOate, read-out: KD(NO), Isothermal Spectral Shift.
The mark [3] stands for this setting: text and figure legend, read-out: KD, NO binding.
The mark [4] stands for this setting: first transition of biphasic dose-response, read-out: EC50, CO binding, first transition.
Setting [5] is: second transition of biphasic dose-response, read-out: EC50, CO binding, second transition.

With nitric oxide [NO], the Kd at BvPgb 1.2 (read-out: KD(NO), Flash Photolysis and Stopped-Flow Rapid Mixing) is about 6400 nM; on BvPgb 1.2 C86A mutant (setting [2]) it was 400 ± 100 nM; on BvPgb 1.2 C86A mutant (setting [3]), 400 nM and ~400 nM; in assay [1] (setting [2]), 1600 ± 100 nM; in assay [1] (setting [3]) it was 1600 nM and ~1600 nM.

With `[C-]#[O+]` [CO, carbon monoxide], the Kd at BvPgb 1.2 (read-out: KD(CO, open), Flash Photolysis and Stopped-Flow Rapid Mixing) was about 100000 nM. The “KD(CO, closed) /EC50,2, Isothermal Spectral Shift” value at BvPgb 1.2 C86A mutant (PBS-T20 pH 7.4) was determined as 500 ± 200 nM; in assay [1] (PBS-T20 pH 7.4), 400 ± 100 nM. Moreover, the results for the “KD(CO, open) /EC50,1, Isothermal Spectral Shift” value (on BvPgb 1.2 C86A mutant (PBS-T20 pH 7.4); in assay [1] (PBS-T20 pH 7.4)) were 400000 ± 300000 nM and 700000 ± 200000 nM, respectively. Besides, the EC50 on BvPgb 1.2 C86A mutant (setting [4]) was about 500 nM; at BvPgb 1.2 C86A mutant (setting [5]), about 400000 nM; in assay [1] (setting [4]), about 400 nM; in assay [1] (setting [5]) it was about 700000 nM.

As a reminder, the EC50 is the concentration giving half of the maximal effect.
